Experimental data: ChEMBL document CHEMBL1201862, “PubChem BioAssay data set” (2004)
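Method: 48-hour compound exposure of cells in 96-well plates, five concentrations, linear interpolation of endpoints. GI50 is the concentration that inhibits growth by half.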 Active and inactive are the calls of the source. No stated cut-off is given here; in the data, active = GI50 up to about 1.1 µM and inactive = higher.

Columns and labels:
Assay in all cases: growth of human tumour cells (NCI), 48 h
UO-31 = test system: UO-31
NCI-H23 = test system: NCI-H23
UACC-62 = test system: UACC-62
HOP-92 = test system: HOP-92
SK-MEL-28 = test system: SK-MEL-28
Malme-3M = test system: Malme-3M
IGROV-1 = test system: IGROV-1
OVCAR-5 = test system: OVCAR-5
RXF 393 = test system: RXF 393
KM12 = test system: KM12
A549 = test system: A549
M14 = test system: M14
PC-3 = test system: PC-3
HT-29 = test system: HT-29
SF-295 = test system: SF-295
DU-145 = test system: DU-145
Hs-578T = test system: Hs-578T
SNB-19 = test system: SNB-19
EKVX = test system: EKVX
T47D = test system: T47D

Measured: GI50

Cc1ccc(S(=O)(=O)NNC2Oc3cc4c(cc3C(c3ccccc3O)C2C)OCO4)cc1 (stereo not given)
inactive: UO-31 11 µM | NCI-H23 15.7 µM | UACC-62 15.7 µM | HOP-92 17.1 µM | SK-MEL-28 15.6 µM | Malme-3M 12.2 µM | IGROV-1 12.4 µM | OVCAR-5 16.1 µM | RXF 393 4.22 µM | KM12 12.2 µM | A549 8.36 µM | M14 13.4 µM | PC-3 10.1 µM | HT-29 14.3 µM | SF-295 11.6 µM | DU-145 13 µM | Hs-578T 10.9 µM | SNB-19 12.7 µM | EKVX 10.7 µM | T47D 12 µM

CC1C(NNC(N)=O)Oc2cc3c(cc2C1c1ccccc1O)OCO3 (stereo not given)
inactive: UO-31 52.5 µM | NCI-H23 89.9 µM | UACC-62 30.4 µM | HOP-92 16.5 µM | SK-MEL-28 31 µM | Malme-3M 28.6 µM | IGROV-1 26.3 µM | OVCAR-5 > 100 µM | RXF 393 23.8 µM | KM12 31.2 µM | A549 31.8 µM | M14 39.3 µM | PC-3 24.5 µM | HT-29 34 µM | SF-295 27 µM | DU-145 49.7 µM | Hs-578T 25.3 µM | SNB-19 91 µM | EKVX 66.8 µM | T47D 38.6 µM

C=C1C(=O)OC2/C=C(\C)CC/C=C(/C)CC(OC(=O)/C(=C/CO)CO)C12 (stereo not given)
inactive: UO-31 17 µM | NCI-H23 18.2 µM | UACC-62 16.8 µM | HOP-92 26.7 µM | SK-MEL-28 28.4 µM | Malme-3M 20.1 µM | IGROV-1 33.5 µM | OVCAR-5 18.7 µM | RXF 393 11 µM | KM12 > 100 µM | A549 66.2 µM | M14 18.1 µM | PC-3 > 100 µM | HT-29 27.2 µM | SF-295 93.5 µM | DU-145 17.5 µM | Hs-578T 39.7 µM | SNB-19 65 µM | EKVX > 10 µM | T47D > 10 µM

NC1C2C=CC(C2)C1C(=O)O (stereo not given)
inactive: UO-31 > 100 µM | NCI-H23 > 100 µM | UACC-62 > 100 µM | HOP-92 > 100 µM | SK-MEL-28 > 100 µM | Malme-3M > 100 µM | IGROV-1 > 100 µM | OVCAR-5 > 100 µM | RXF 393 > 100 µM | KM12 > 100 µM | A549 > 100 µM | M14 > 100 µM | PC-3 > 100 µM | HT-29 > 100 µM | SF-295 > 100 µM | DU-145 > 100 µM | Hs-578T > 100 µM | SNB-19 > 100 µM | EKVX > 100 µM | T47D > 100 µM
